# Test results as given in PubChem BioAssay (NCI).
#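 Five concentrations, 48 hours, 96-well plates. TGI: total growth inhibition.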
# Columns and labels:
# Assay in all cases: NCI anticancer screen, dose series, 48 h
# 786-0 renal = test system: 786-0 renal
# A498 renal = test system: A498 renal
# A549 NSCLC = test system: A549 NSCLC
# ACHN renal = test system: ACHN renal
# BT-549 breast = test system: BT-549 breast
# CAKI-1 renal = test system: CAKI-1 renal
# CCRF-CEM leukemia = test system: CCRF-CEM leukemia
# COLO 205 colon = test system: COLO 205 colon
# DU-145 prostate = test system: DU-145 prostate
# EKVX NSCLC = test system: EKVX NSCLC
# HCT-116 colon = test system: HCT-116 colon
# HCT-15 colon = test system: HCT-15 colon
# HL-60(TB) leukemia = test system: HL-60(TB) leukemia
# HOP-62 NSCLC = test system: HOP-62 NSCLC
# HOP-92 NSCLC = test system: HOP-92 NSCLC
# HS 578T breast = test system: HS 578T breast
# HT29 colon = test system: HT29 colon
# IGROV1 ovarian = test system: IGROV1 ovarian
# K-562 leukemia = test system: K-562 leukemia
# KM12 colon = test system: KM12 colon
# LOX IMVI melanoma = test system: LOX IMVI melanoma
# M14 melanoma = test system: M14 melanoma
# MALME-3M melanoma = test system: MALME-3M melanoma
# MCF7 breast = test system: MCF7 breast
# MDA-MB-231 breast = test system: MDA-MB-231 breast
# MDA-MB-435 = test system: MDA-MB-435
# MDA-N = test system: MDA-N
# MOLT-4 leukemia = test system: MOLT-4 leukemia
# NCI-H226 lung = test system: NCI-H226 lung
# NCI-H23 lung = test system: NCI-H23 lung
# NCI-H460 lung = test system: NCI-H460 lung
# NCI-H522 lung = test system: NCI-H522 lung
# NCI/ADR-RES ovarian = test system: NCI/ADR-RES ovarian
# OVCAR-3 ovarian = test system: OVCAR-3 ovarian
# OVCAR-4 ovarian = test system: OVCAR-4 ovarian
# OVCAR-5 ovarian = test system: OVCAR-5 ovarian
# OVCAR-8 ovarian = test system: OVCAR-8 ovarian
# PC-3 prostate = test system: PC-3 prostate
# RPMI-8226 leukemia = test system: RPMI-8226 leukemia
# RXF 393 renal = test system: RXF 393 renal
# SF-268 CNS = test system: SF-268 CNS
# SF-295 CNS = test system: SF-295 CNS
# SF-539 CNS = test system: SF-539 CNS
# SK-MEL-2 melanoma = test system: SK-MEL-2 melanoma
# SK-MEL-28 melanoma = test system: SK-MEL-28 melanoma
# SK-MEL-5 melanoma = test system: SK-MEL-5 melanoma
# SK-OV-3 ovarian = test system: SK-OV-3 ovarian
# SN12C renal = test system: SN12C renal
# SNB-19 CNS = test system: SNB-19 CNS
# SNB-75 CNS = test system: SNB-75 CNS
# SR leukemia = test system: SR leukemia
# SW-620 colon = test system: SW-620 colon
# T-47D breast = test system: T-47D breast
# TK-10 renal = test system: TK-10 renal
# U251 CNS = test system: U251 CNS
# UACC-257 melanoma = test system: UACC-257 melanoma
# UACC-62 melanoma = test system: UACC-62 melanoma
# UO-31 renal = test system: UO-31 renal
# DLD-1 colon = test system: DLD-1 colon
# DMS 114 small cell lung = test system: DMS 114 small cell lung
# HCC-2998 colon = test system: HCC-2998 colon
# KM20L2 colon = test system: KM20L2 colon
# LXFL 529 NSCLC = test system: LXFL 529 NSCLC
# M19-MEL melanoma = test system: M19-MEL melanoma
# SNB-78 CNS = test system: SNB-78 CNS
compound,measurement,setting,value
NC(CSC1(c2ccc(Cl)cc2)c2ccccc2-c2ccccc21)C(=O)O (stereo not given),TGI,786-0 renal,50.9 µM
same,TGI,A498 renal,35 µM
same,TGI,A549 NSCLC,> 100 µM
same,TGI,ACHN renal,50.2 µM
same,TGI,BT-549 breast,34.6 µM
same,TGI,CAKI-1 renal,> 100 µM
same,TGI,CCRF-CEM leukemia,> 100 µM
same,TGI,COLO 205 colon,28.9 µM
same,TGI,DU-145 prostate,> 100 µM
same,TGI,EKVX NSCLC,> 100 µM
same,TGI,HCT-116 colon,34.6 µM
same,TGI,HCT-15 colon,47.3 µM
same,TGI,HL-60(TB) leukemia,> 100 µM
same,TGI,HOP-62 NSCLC,49.6 µM
same,TGI,HOP-92 NSCLC,47.4 µM
same,TGI,HS 578T breast,45.6 µM
same,TGI,HT29 colon,> 100 µM
same,TGI,IGROV1 ovarian,29.4 µM
same,TGI,K-562 leukemia,> 100 µM
same,TGI,KM12 colon,63.2 µM
same,TGI,LOX IMVI melanoma,30.3 µM
same,TGI,M14 melanoma,68.4 µM
same,TGI,MALME-3M melanoma,38.5 µM
same,TGI,MCF7 breast,39 µM
same,TGI,MDA-MB-231 breast,35.7 µM
same,TGI,MDA-MB-435,35.3 µM
same,TGI,MDA-N,> 100 µM
same,TGI,MOLT-4 leukemia,71.5 µM
same,TGI,NCI-H226 lung,67.5 µM
same,TGI,NCI-H23 lung,41.1 µM
same,TGI,NCI-H460 lung,39.5 µM
same,TGI,NCI-H522 lung,30.4 µM
same,TGI,NCI/ADR-RES ovarian,> 100 µM
same,TGI,OVCAR-3 ovarian,> 100 µM
same,TGI,OVCAR-4 ovarian,> 100 µM
same,TGI,OVCAR-5 ovarian,79.5 µM
same,TGI,OVCAR-8 ovarian,38.7 µM
same,TGI,PC-3 prostate,43.5 µM
same,TGI,RPMI-8226 leukemia,> 100 µM
same,TGI,RXF 393 renal,> 100 µM
same,TGI,SF-268 CNS,50.2 µM
same,TGI,SF-295 CNS,37.7 µM
same,TGI,SF-539 CNS,48.5 µM
same,TGI,SK-MEL-2 melanoma,41.8 µM
same,TGI,SK-MEL-28 melanoma,> 100 µM
same,TGI,SK-MEL-5 melanoma,30.6 µM
same,TGI,SK-OV-3 ovarian,> 100 µM
same,TGI,SN12C renal,41.4 µM
same,TGI,SNB-19 CNS,52.8 µM
same,TGI,SNB-75 CNS,62.9 µM
same,TGI,SR leukemia,46.9 µM
same,TGI,SW-620 colon,> 100 µM
same,TGI,T-47D breast,> 100 µM
same,TGI,TK-10 renal,48.3 µM
same,TGI,U251 CNS,29.6 µM
same,TGI,UACC-257 melanoma,34.4 µM
same,TGI,UACC-62 melanoma,34.4 µM
same,TGI,UO-31 renal,98.8 µM
Cc1nc(-n2nc(-c3ccccc3)cc2-c2ccccc2)sc1C(/C=C/c1ccc([N+](=O)[O-])cc1)=N/NC(N)=S,TGI,786-0 renal,43.6 µM
same,TGI,A498 renal,> 100 µM
same,TGI,A549 NSCLC,> 100 µM
same,TGI,ACHN renal,> 100 µM
same,TGI,CAKI-1 renal,> 100 µM
same,TGI,CCRF-CEM leukemia,90.2 µM
same,TGI,COLO 205 colon,> 100 µM
same,TGI,DLD-1 colon,> 100 µM
same,TGI,DMS 114 small cell lung,73.5 µM
same,TGI,EKVX NSCLC,> 100 µM
same,TGI,HCC-2998 colon,74 µM
same,TGI,HCT-116 colon,43.4 µM
same,TGI,HCT-15 colon,> 100 µM
same,TGI,HL-60(TB) leukemia,25.6 µM
same,TGI,HOP-62 NSCLC,65.7 µM
same,TGI,HOP-92 NSCLC,> 100 µM
same,TGI,HT29 colon,> 100 µM
same,TGI,IGROV1 ovarian,> 100 µM
same,TGI,K-562 leukemia,62.7 µM
same,TGI,KM12 colon,> 100 µM
same,TGI,KM20L2 colon,> 100 µM
same,TGI,LXFL 529 NSCLC,> 100 µM
same,TGI,M14 melanoma,> 100 µM
same,TGI,M19-MEL melanoma,> 100 µM
same,TGI,MALME-3M melanoma,> 100 µM
same,TGI,MOLT-4 leukemia,81.4 µM
same,TGI,NCI-H226 lung,> 100 µM
same,TGI,NCI-H23 lung,> 100 µM
same,TGI,NCI-H460 lung,> 100 µM
same,TGI,OVCAR-3 ovarian,> 100 µM
same,TGI,OVCAR-5 ovarian,> 100 µM
same,TGI,OVCAR-8 ovarian,> 100 µM
same,TGI,RPMI-8226 leukemia,45 µM
same,TGI,RXF 393 renal,> 100 µM
same,TGI,SF-268 CNS,> 100 µM
same,TGI,SF-295 CNS,> 100 µM
same,TGI,SF-539 CNS,> 100 µM
same,TGI,SK-MEL-2 melanoma,> 100 µM
same,TGI,SK-MEL-28 melanoma,> 100 µM
same,TGI,SK-MEL-5 melanoma,> 100 µM
same,TGI,SK-OV-3 ovarian,> 100 µM
same,TGI,SN12C renal,> 100 µM
same,TGI,SNB-19 CNS,> 100 µM
same,TGI,SNB-75 CNS,> 100 µM
same,TGI,SNB-78 CNS,56.7 µM
same,TGI,TK-10 renal,> 100 µM
same,TGI,U251 CNS,> 100 µM
same,TGI,UACC-257 melanoma,> 100 µM
same,TGI,UACC-62 melanoma,> 100 µM
same,TGI,UO-31 renal,> 100 µM
CCC1OC(=O)CC(O)C(C)C(OC2OC(C)CC(N(C)C)C2O)C(CC=O)CC(C)C(=O)/C=C/C2(C)OC2C1C (stereo not given),TGI,786-0 renal,40.9 µM
same,TGI,A498 renal,71.8 µM
same,TGI,A549 NSCLC,> 100 µM
same,TGI,ACHN renal,56.1 µM
same,TGI,BT-549 breast,31.8 µM
same,TGI,CAKI-1 renal,74.1 µM
same,TGI,CCRF-CEM leukemia,26.2 µM
same,TGI,COLO 205 colon,32.2 µM
same,TGI,DU-145 prostate,61.2 µM
same,TGI,EKVX NSCLC,44.8 µM
same,TGI,HCC-2998 colon,> 100 µM
same,TGI,HCT-116 colon,31.6 µM
same,TGI,HCT-15 colon,39.1 µM
same,TGI,HL-60(TB) leukemia,32.4 µM
same,TGI,HOP-62 NSCLC,71.7 µM
same,TGI,HOP-92 NSCLC,64.6 µM
same,TGI,HS 578T breast,> 100 µM
same,TGI,HT29 colon,38.3 µM
same,TGI,IGROV1 ovarian,25.4 µM
same,TGI,K-562 leukemia,24.3 µM
same,TGI,KM12 colon,28.6 µM
same,TGI,LOX IMVI melanoma,48 µM
same,TGI,M14 melanoma,> 100 µM
same,TGI,MALME-3M melanoma,64.9 µM
same,TGI,MCF7 breast,25 µM
same,TGI,MDA-MB-231 breast,53.8 µM
same,TGI,MDA-MB-435,40.3 µM
same,TGI,MDA-N,> 100 µM
same,TGI,MOLT-4 leukemia,43.4 µM
same,TGI,NCI-H226 lung,49.6 µM
same,TGI,NCI-H23 lung,52.3 µM
same,TGI,NCI-H460 lung,> 100 µM
same,TGI,NCI-H522 lung,54.9 µM
same,TGI,NCI/ADR-RES ovarian,86.7 µM
same,TGI,OVCAR-3 ovarian,59.1 µM
same,TGI,OVCAR-5 ovarian,> 100 µM
same,TGI,OVCAR-8 ovarian,68.5 µM
same,TGI,PC-3 prostate,> 100 µM
same,TGI,RPMI-8226 leukemia,> 100 µM
same,TGI,RXF 393 renal,56.1 µM
same,TGI,SF-268 CNS,76.3 µM
same,TGI,SF-295 CNS,77.1 µM
same,TGI,SF-539 CNS,29.6 µM
same,TGI,SK-MEL-2 melanoma,> 100 µM
same,TGI,SK-MEL-28 melanoma,42.3 µM
same,TGI,SK-MEL-5 melanoma,29.3 µM
same,TGI,SK-OV-3 ovarian,78.9 µM
same,TGI,SN12C renal,39.1 µM
same,TGI,SNB-19 CNS,30.6 µM
same,TGI,SNB-75 CNS,40.8 µM
same,TGI,SR leukemia,36.6 µM
same,TGI,SW-620 colon,34.8 µM
same,TGI,T-47D breast,48.6 µM
same,TGI,U251 CNS,30.8 µM
same,TGI,UACC-257 melanoma,> 100 µM
same,TGI,UACC-62 melanoma,28.9 µM
same,TGI,UO-31 renal,80.4 µM
